{
  "source": "paper PMC9905294",
  "about": "(Biochemistry, 2023)",
  "origin": "cited, not measured here",
  "biological_target": "Mtb Eis (Mycobacterium tuberculosis, UniProt P9WFK7)",
  "sequence (P9WFK7 whole entry)": "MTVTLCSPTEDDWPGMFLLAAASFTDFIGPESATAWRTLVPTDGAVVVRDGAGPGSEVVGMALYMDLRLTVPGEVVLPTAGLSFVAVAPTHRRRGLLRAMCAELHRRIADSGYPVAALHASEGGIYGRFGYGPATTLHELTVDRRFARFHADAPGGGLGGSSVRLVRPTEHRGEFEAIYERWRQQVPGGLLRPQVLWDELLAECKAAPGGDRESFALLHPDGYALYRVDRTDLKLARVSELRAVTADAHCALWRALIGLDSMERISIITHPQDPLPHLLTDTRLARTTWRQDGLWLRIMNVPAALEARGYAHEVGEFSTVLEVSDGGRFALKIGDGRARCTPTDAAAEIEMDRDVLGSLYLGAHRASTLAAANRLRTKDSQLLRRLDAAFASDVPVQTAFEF",
  "details": "previously published value; cited from earlier work",
  "data": [
    {"smiles": "[H]/N=C(\\N/C(=N/[H])NCCCCCCNC(=N)NC(=N)Nc1ccc(Cl)cc1)Nc1ccc(Cl)cc1", "note": "[Chlorhexidine (CHX), Chlorhexidine]", "values": [
      {"measurement": "IC50", "value": "670 ± 190", "unit": "nM"}
    ]}
  ]
}
